Laboratory results from BindingDB's records for PubMed 7651361 (Georgetown University, 1995).
Values joined by “and” are separate entries in the source; they are usually repeats but may differ in a detail not shown here. Identical values can stand only once.

target: Nicotinic acetylcholine receptor (Rattus leucopus, UniProt Q62594)
Sequence (Q62594 whole entry): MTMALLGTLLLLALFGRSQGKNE

Structure (SMILES) | Ki
C[N+](C)(C)CCCCCC[N+](C)(C)C [Hexamethoniumdibromide] | > 10 µM
CN1[C@@H]2CC[C@H]1CC(OC(=O)[C@H](CO)c1ccccc1)C2 (stereo partly drawn) [CAS_51-55-8] | > 10 µM
COc1cc2c3cc1Oc1cc(ccc1O)CC1c4c(cc(OC)c(O)c4Oc4ccc(cc4)CC3[N+](C)(C)CC2)CC[N+]1(C)C (stereo not drawn) [CAS_8063-06-7] | 4.5 µM and 2.03 µM
